Results from ChEMBL document CHEMBL6153109, “Switching Roles─Exploring Concentration-Dependent Agonistic versus Antagonistic Behavior of Integrin Ligands” (J Med Chem, 2025).
Activity calls are given as the source filed them. The rule behind the calls is not given here.

Key:
[1] = Drug uptake in human HN cells overexpressing integrin alphaVbeta6 at 1 uM measured at 60 to 300 mins by Hoechst 33342 staining based fluorescence analysis; format: ADME, cell-based; settings: time 60-300 min
[2] = Drug uptake in human HN cells overexpressing integrin alphaVbeta6 at 1 uM measured within 3 mins by Hoechst 33342 staining based fluorescence analysis; format: ADME, cell-based; settings: 0.05 h
[3] = Drug uptake in human OV-MZ-6 cells overexpressing integrin […] at 1 uM measured after 300 mins by Hoechst 33342 staining based fluorescence analysis; format: ADME, cell-based; settings: ov-mz-6, 5 h
[4] = Drug localization in cell membrane of human M21 cells overexpressing integrin alphaVbeta3 at 1 uM measured at 30 mins by CellMask green staining based fluorescence analysis; format: ADME, cell membranes; settings: m21, 0.5 h
[5] = Drug uptake in human M21 cells overexpressing integrin alphaVbeta3 at 1 uM measured at 60 to 300 mins by Hoechst 33342 staining based fluorescence analysis; format: ADME, cell-based; settings: m21, 1 µM, time 60-300 min
[6] = Drug localization in cell membrane of human M21 cells overexpressing integrin alphaVbeta3 at 1 uM measured within 3 mins by CellMask green staining based fluorescence analysis; format: ADME, cell membranes; settings: m21, 0.05 h
Integrin alpha-5/beta-1 [7] = biological target: T1, Integrin alpha-5/beta-1 (Homo sapiens, UniProt P05556+P08648); assay: Agonist activity at integrin alpha5beta1 in human OV-MZ-6 cells assessed as increase in FAK expression at 1 nM measured after 30 to 60 mins by Western blot analysis; format: cell-based; settings: time 30-60 min
M21 [8] = assay: Inhibition of cell migration in human M21 cells expressing integrin alphaVbeta3 assessed as delay in wound gap closure at 1 to 1000 nM measured after 9 to 72 hrs by wound scratch assay; format: functional, cell-based; settings: dose 1-1000 nM, time 9-72 hrs
Integrin alpha-V/beta-3 [9] = biological target: T2, Integrin alpha-V/beta-3 (Homo sapiens, UniProt P05106+P06756); assay: Agonist activity at integrin alphaVbeta3 in human M21 cells assessed as increase in p-ERK1/2 expression at 1 uM incubated for 24 hrs by Western blot analysis; format: cell-based; settings: filed as agonist
Integrin alpha-V/beta-3 [10] = biological target: T2, Integrin alpha-V/beta-3; assay: Agonist activity at integrin alphaVbeta3 in human M21 cells assessed as increase in FAK expression at 1 nM incubated for 5 to 60 mins by Western blot analysis; format: cell-based; settings: time 5-60 min
OV-MZ-6 [11] = assay: Inhibition of cell adhesion in human OV-MZ-6 cells expressing integrin alpha5beta1 at 1 nM measured after 48 hrs by microscopic imaging analysis; format: functional, cell-based
Integrin alpha-5/beta-1 [12] = biological target: T1, Integrin alpha-5/beta-1; assay: Agonist activity at integrin alpha5beta1 in human OV-MZ-6 cells assessed as increase in FAK expression at 1 uM measured after 5 to 60 mins by Western blot analysis; format: cell-based; settings: time 5-60 min
OV-MZ-6 [13] = assay: Inhibition of cell adhesion in human OV-MZ-6 cells expressing integrin alpha5beta1 at 1 uM measured after 48 hrs by microscopic imaging analysis; format: functional, cell-based
Integrin alpha-5/beta-1 [14] = biological target: T1, Integrin alpha-5/beta-1; assay: Agonist activity at integrin alpha5beta1 in human OV-MZ-6 cells assessed as increase in p-ERK1/2 expression at 1 uM incubated for 24 hrs by Western blot analysis; format: cell-based
OV-MZ-6 [15] = assay: Inhibition of cell migration in human OV-MZ-6 cells expressing integrin alpha5beta1 assessed as delay in wound gap closure at 1 uM measured within 24 hrs by wound scratch assay; format: functional, cell-based
Integrin alpha-V/beta-6 [16] = biological target: T3, Integrin alpha-V/beta-6 (Homo sapiens, UniProt P06756+P18564); assay: Agonist activity at integrin alphaVbeta6 in human HN cells assessed as fold increase in p-FAK expression at 1 nM measured within 30 mins by Western blot analysis (reference value: 1); format: cell-based; settings: filed as agonist
Integrin alpha-V/beta-6 [17] = biological target: T3, Integrin alpha-V/beta-6; assay: Agonist activity at integrin alphaVbeta6 in human HN cells assessed as fold increase in p-FAK expression at 1 uM measured within 30 mins by Western blot analysis (reference value: 1); format: cell-based; settings: filed as agonist
OV-MZ-6 [18] = assay: Inhibition of cell migration in human OV-MZ-6 cells expressing integrin alpha5beta1 assessed as delay in wound gap closure at 1 uM measured within 72 hrs by wound scratch assay; format: functional, cell-based
Integrin alpha-5/beta-1 [19] = biological target: T1, Integrin alpha-5/beta-1; assay: Agonist activity at integrin alpha5beta1 in human OV-MZ-6 cells assessed as fold increase in FAK expression at 1 nM measured after 5 mins by Western blot analysis (reference value: 1); format: cell-based; settings: filed as agonist
Integrin alpha-V/beta-3 [20] = biological target: T2, Integrin alpha-V/beta-3; assay: Agonist activity at integrin alphaVbeta3 in human M21 cells assessed as increase in p-FAK expression at 1 nM incubated for 5 to 60 mins by Western blot analysis; format: cell-based; settings: time 5-60 min
OV-MZ-6 [21] = assay: Inhibition of cell migration in human OV-MZ-6 cells expressing integrin alpha5beta1 assessed as delay in wound gap closure at 1 nM measured after 9 to 72 hrs by wound scratch assay; format: functional, cell-based; settings: time 9-72 hrs
Integrin alpha-5/beta-1 [22] = biological target: T1, Integrin alpha-5/beta-1; assay: Agonist activity at integrin alpha5beta1 in human OV-MZ-6 cells assessed as increase in p-FAK expression at 1 uM incubated for 24 hrs by Western blot analysis; format: cell-based
M21 [23] = assay: Inhibition of cell migration in human M21 cells expressing integrin alphaVbeta3 assessed as delay in wound gap closure at 1 nM measured after 9 to 72 hrs by wound scratch assay; format: functional, cell-based; settings: time 9-72 hrs
Integrin alpha-V/beta-3 [24] = biological target: T2, Integrin alpha-V/beta-3; assay: Agonist activity at integrin alphaVbeta3 in human M21 cells assessed as increase in FAK expression at 1 uM incubated for 5 to 60 mins by Western blot analysis; format: cell-based; settings: time 5-60 min
M21 [25] = assay: Inhibition of cell migration in human M21 cells expressing integrin alphaVbeta3 assessed as cell coverage at 1 uM measured within 72 hrs by wound scratch assay (reference value: 95 %); format: functional; design: scale not given: the % may be the effect or the level left
M21 [26] = assay: Inhibition of cell adhesion in human M21 cells expressing integrin alphaVbeta3 at 1 uM measured after 48 hrs by microscopic imaging analysis; format: functional, cell-based
Integrin alpha-5/beta-1 [27] = biological target: T1, Integrin alpha-5/beta-1; assay: Agonist activity at integrin alpha5beta1 in human OV-MZ-6 cells assessed as increase in FAK expression at 1 nM incubated for 5 to 60 mins by Western blot analysis; format: cell-based; settings: filed as agonist, time 5-60 min
M21 [28] = assay: Inhibition of cell adhesion in human M21 cells expressing integrin alphaVbeta3 at 1 nM measured after 48 hrs by microscopic imaging analysis; format: functional, cell-based
OV-MZ-6 [29] = assay: Inhibition of cell migration in human OV-MZ-6 cells expressing integrin alpha5beta1 assessed as delay in wound gap closure at 1 to 1000 nM measured after 72 hrs by wound scratch assay; format: functional, cell-based; settings: dose 1-1000 nM
Integrin alpha-5/beta-1 [30] = biological target: T1, Integrin alpha-5/beta-1; assay: Agonist activity at integrin alpha5beta1 in human OV-MZ-6 cells assessed as fold increase in p-ERK1/2 expression at 1 uM incubated for 24 hrs by Western blot analysis; format: cell-based; settings: filed as agonist
Integrin alpha-5/beta-1 [31] = biological target: T1, Integrin alpha-5/beta-1; assay: Agonist activity at integrin alpha5beta1 in human OV-MZ-6 cells assessed as increase in p-FAK expression at 1 nM measured after 60 mins by Western blot analysis; format: cell-based
Integrin alpha-5/beta-1 [32] = biological target: T1, Integrin alpha-5/beta-1; assay: Agonist activity at integrin alpha5beta1 in human OV-MZ-6 cells assessed as fold increase in p-FAK expression at 1 nM incubated for 5 mins by Western blot analysis (reference value: 1); format: cell-based; settings: filed as agonist
Integrin alpha-V/beta-3 [33] = biological target: T2, Integrin alpha-V/beta-3; assay: Agonist activity at integrin alphaVbeta3 in human M21 cells assessed as increase in p-FAK expression at 1 uM incubated for 24 hrs by Western blot analysis; format: cell-based
Integrin alpha-V/beta-3 [34] = biological target: T2, Integrin alpha-V/beta-3; assay: Agonist activity at integrin alphaVbeta3 in human M21 cells assessed as fold increase in FAK expression at 1 uM incubated for 24 hrs by Western blot analysis; format: cell-based; settings: filed as agonist
Integrin alpha-V/beta-3 [35] = biological target: T2, Integrin alpha-V/beta-3; assay: Agonist activity at integrin alphaVbeta3 in human M21 cells assessed as increase in p-FAK expression at 1 to 1000 nM incubated for 5 to 60 mins by Western blot analysis; format: cell-based; settings: dose 1-1000 nM, time 5-60 min
Integrin alpha-5/beta-1 [36] = biological target: T1, Integrin alpha-5/beta-1; assay: Agonist activity at integrin alpha5beta1 in human OV-MZ-6 cells assessed as fold increase in FAK expression at 1 uM incubated for 24 hrs by Western blot analysis (reference value: 1); format: cell-based; settings: filed as agonist

Question: With `CC(C)C[C@@H]1NC(=O)[C@H](CC(=O)O)NC(=O)CNC(=O)[C@H](CCCNC(=N)N)NC(=O)[C@H](Cc2ccccc2)NC(=O)[C@H](CCCCNC(=O)CCCCCNC(=O)CCCCC[N+]2=C(/C=C/C=C/C=C3/N(C)c4ccc5ccccc5c4C3(C)C)C(C)(C)c3c2ccc2ccccc32)N(C)C(=O)[C@H]2CCCN2C(=O)[C@H](Cc2ccccc2)NC(=O)[C@H](C)NC1=O` as the molecule, how does the Drug uptake [1] read?
Answer: Active

Question: And the Drug uptake [2]?
Answer: Active

Question: And the Drug uptake [3]?
Answer: Not_active

Question: With `COc1ccnc(NCCCOc2ccc(C[C@@H](CC(=O)O)NC(=O)c3ccc(OCCCNC(=O)CCCCCNC(=O)CCCCC[N+]4=C(/C=C/C=C/C=C5/N(C)c6ccc7ccccc7c6C5(C)C)C(C)(C)c5c4ccc4ccccc54)cc3)cc2)c1` as the molecule, how does the Drug uptake [4] read?
Answer: Active

Question: And the Drug uptake [3]?
Answer: Active

Question: And the Drug uptake [5]?
Answer: Active

Question: What about the Drug uptake [6] of the same molecule?
Answer: Active

Question: With `C#CCCC(=O)NCCCOc1cc(C)c(C(=O)N[C@@H](CNC(=O)CNC(=O)c2cccc(NC(=N)N)c2)C(=O)O)c(C)c1` as the molecule, how does the Activity (Integrin alpha-5/beta-1 [7]) read?
Answer: inactive

Question: What about the inhibition (M21 [8]) of the same molecule?
Answer: inactive

Question: And the Activity (Integrin alpha-V/beta-3 [9])?
Answer: Active

Question: And the Activity (Integrin alpha-V/beta-3 [10])?
Answer: inactive

Question: What about the inhibition (OV-MZ-6 [11]) of the same molecule?
Answer: inactive

Question: What about the Activity (Integrin alpha-5/beta-1 [12]) of the same molecule?
Answer: inactive

Question: And the inhibition (OV-MZ-6 [13])?
Answer: Active

Question: And the Activity (Integrin alpha-5/beta-1 [14])?
Answer: inactive

Question: And the inhibition (OV-MZ-6 [15])?
Answer: Active

Question: What about the fold change (FC) (Integrin alpha-V/beta-6 [16]) of the same molecule?
Answer: 4

Question: And the fold change (FC) (Integrin alpha-V/beta-6 [17])?
Answer: 3

Question: And the inhibition (OV-MZ-6 [18])?
Answer: inactive

Question: And the fold change (FC) (Integrin alpha-5/beta-1 [19])?
Answer: 1.6

Question: And the Activity (Integrin alpha-V/beta-3 [20])?
Answer: Not active; Slight Increase Compared To Control Observed

Question: What about the inhibition (OV-MZ-6 [21]) of the same molecule?
Answer: inactive

Question: And the Activity (Integrin alpha-5/beta-1 [22])?
Answer: inactive

Question: Which results are given for `C#CCCC(=O)NCCCOc1ccc(C(=O)N[C@H](CC(=O)O)Cc2ccc(OCCCNc3cc(OC)ccn3)cc2)cc1`?
Answer: inhibition (M21 [23]): inactive; Activity (Integrin alpha-V/beta-3 [24]): inactive; Activity (M21 [25]): 80%; inhibition (M21 [26]): Active; Activity (Integrin alpha-V/beta-3 [10]; filed as agonist): Active; Activity (Integrin alpha-5/beta-1 [27]): Active; Slight Increase Observed; inhibition (M21 [28]): inactive; inhibition (OV-MZ-6 [29]): Active; fold change (FC) (Integrin alpha-5/beta-1 [30]): 2.4; Activity (Integrin alpha-5/beta-1 [31]): inactive; fold change (FC) (Integrin alpha-5/beta-1 [32]): 2; Activity (Integrin alpha-V/beta-3 [33]): inactive; fold change (FC) (Integrin alpha-V/beta-3 [34]): 2; Activity (Integrin alpha-V/beta-3 [35]): inactive; fold change (FC) (Integrin alpha-5/beta-1 [36]): 1.7
